Legend:
DIGSA [1] = test: Pre-emergence herbicidal action against DIGSA; format: in vivo, Digitaria sanguinalis; conditions: 320 g/ha, scored visually after 3 weeks vs untreated controls
In short: (§1)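 Sandy loam, wood-fiber pots, seeds covered with soil. Spray onto soil surface: aqueous WP/EC, 600 to 800 L/ha, 0.2% wetting agent. Greenhouse 3 weeks; visual % score vs untreated controls.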

VIOTR = test: Pre-emergence herbicidal action against VIOTR; format: in vivo, Viola tricolor; conditions: 320 g/ha
In short: as §1

LOLRI [2] = test: Post-emergence herbicidal action against LOLRI; format: in vivo, Lolium rigidum; conditions: 80 g/ha, visual assessment about 3 weeks after treatment vs untreated controls
In short: (§2)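 Weeds and crops grown in sandy loam in the greenhouse, treated post-emergence at the one-leaf stage (2–3 weeks after sowing). WP or EC formulations sprayed as aqueous suspension/emulsion at 600–800 l/ha water with 0.2% wetting agent. Visual % activity scored after about 3 weeks versus untreated controls (100% = dead, 0% = like control).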

MATIN = test: Pre-emergence herbicidal action against MATIN; format: in vivo; conditions: 320 g/ha
Source text: (§3) Seeds of monocotyledonous and dicotyledonous weed plants and crop plants are laid out in sandy loam soil in wood-fiber pots and covered with soil. The compounds of the invention, formulated in the form of wettable powders (WP) or as emulsion concentrates (EC), are then applied to the surface of the covering soil as aqueous suspension or emulsion at a water application rate equating to 600 to 800 L/ha with addition of 0.2% wetting agent.
(§4) After the treatment, the pots are placed in a greenhouse and kept under good growth conditions for the trial plants. The damage to the test plants is scored visually after a test period of 3 weeks by comparison with untreated controls (herbicidal activity in percent (%): 100% activity=the plants have died, 0% activity=like control plants).

AVEFA [3] = test: Post-emergence herbicidal action against AVEFA; format: in vivo, Avena fatua; conditions: 80 g/ha, visual assessment after about 3 weeks
In short: as §2

SETVI [4] = test: Post-emergence herbicidal action against SETVI; format: in vivo, Setaria viridis; conditions: 80 g/ha, visual assessment about 3 weeks after treatment vs untreated controls
In short: as §2

ECHCG [5] = test: Pre-emergence herbicidal action against ECHCG; format: in vivo, Echinochloa crus-galli; conditions: 320 g/ha, scored visually after 3 weeks vs untreated controls
In short: as §1

ABUTH = test: Post-emergence herbicidal action against ABUTH; format: in vivo, Abutylon threophrasti; conditions: 80 g/ha, visual assessment about 3 weeks after treatment vs untreated controls
Method: Seeds of monocotyledonous and dicotyledonous weed and crop plants are laid out in sandy loam soil in wood-fiber pots, covered with soil and cultivated in a greenhouse under good growth conditions. 2 to 3 weeks after sowing, the test plants are treated at the one-leaf stage. The compounds of the invention, formulated in the form of wettable powders (WP) or as emulsion concentrates (EC), are then sprayed onto the green parts of the plants as aqueous suspension or emulsion at a water application rate equating to 600 to 800 l/ha with addition of 0.2% wetting agent. After the test plants have been left to stand in the greenhouse under optimal growth conditions for about 3 weeks, the action of the preparations is assessed visually in comparison to untreated controls (herbicidal action in percent (%): 100% activity=the plants have died, 0% activity=like control plants).

DIGSA [6] = test: Post-emergence herbicidal action against DIGSA; format: in vivo, Digitaria sanguinalis; conditions: 80 g/ha, visual assessment about 3 weeks after treatment vs untreated controls
In short: as §2

ALOMY [7] = test: Post-emergence herbicidal action against ALOMY; format: in vivo, Alopecurus myosuroides; conditions: 80 g/ha, visual assessment after about 3 weeks
In short: as §2

AVEFA [8] = test: Pre-emergence herbicidal action against AVEFA; format: in vivo, Avena fatua; conditions: 320 g/ha, scored visually after 3 weeks vs untreated controls
In short: as §1

SETVI [9] = test: Pre-emergence herbicidal action against SETVI; format: in vivo, Setaria viridis; conditions: 320 g/ha, scored visually after 3 weeks vs untreated controls
In short: as §1

ECHCG [10] = test: Post-emergence herbicidal action against ECHCG; format: in vivo, Echinochloa crus-galli; conditions: 80 g/ha, visual assessment about 3 weeks after treatment vs untreated controls
In short: as §2

LOLRI [11] = test: Pre-emergence herbicidal action against LOLRI (Table 8, titled post-emergence at 320 g/ha); format: in vivo, Lolium rigidum; conditions: table stands in the pre-emergence section
In short: as §1

ALOMY [12] = test: Pre-emergence herbicidal action against ALOMY; format: in vivo, Alopecurus myosuroides; conditions: 320 g/ha, scored visually after 3 weeks vs untreated controls
In short: as §1

AMARE = test: Pre-emergence herbicidal action against AMARE; format: in vivo, Amaranthus retroflexus; conditions: 320 g/ha
In short: as §1

POLCO = test: Pre-emergence herbicidal action against POLCO; format: in vivo, Polygonum convolvulus; conditions: 320 g/ha
Source text: as §3, §4

VERPE = test: Pre-emergence herbicidal action against VERPE; format: in vivo, Veronica persica; conditions: 320 g/ha
In short: as §1

Compound | Pre-emergence action against DIGSA in % (DIGSA [1]) [%] | Pre-emergence action against VIOTR in % (VIOTR) [%] | Post-emergence action against LOLRI in % (LOLRI [2]) [%] | Pre-emergence action against MATIN in % (MATIN) [%] | Post-emergence action against AVEFA in % (AVEFA [3]) [%] | Post-emergence action against SETVI in % (SETVI [4]) [%] | Pre-emergence action against ECHCG in % (ECHCG [5]) [%] | Post-emergence action against ABUTH in % (ABUTH) [%] | Post-emergence action against DIGSA in % (DIGSA [6]) [%] | Post-emergence action against ALOMY in % (ALOMY [7]) [%] | Pre-emergence action against AVEFA in % (AVEFA [8]) [%] | Pre-emergence action against SETVI in % (SETVI [9]) [%] | Post-emergence action against ECHCG in % (ECHCG [10]) [%] | Pre-emergence herbicidal action against LOLRI in % (LOLRI [11]) [%] | Pre-emergence action against ALOMY in % (ALOMY [12]) [%] | Pre-emergence action against AMARE in % (AMARE) [%] | Pre-emergence action against POLCO in % (POLCO) [%] | Pre-emergence action against VERPE in % (VERPE) [%]
CC#Cc1cc(F)c(C2=C(O)C3(CCC(COCC)C3)NC2=O)c(OC)c1 (stereo not shown) [Example I-42] | 100 | 80 | 90 | 80 | 90 | 100 | 80 | 80 | 100 | 90 | 90 | 100 | 100 | 100 |  |  |  | 
C=CCOCC1CCC2(C1)NC(=O)C(c1c(C)cc(C#CC)cc1Cl)=C2O (stereo not shown) [Example I-46] | 100 | 100 | 90 | 90 |  | 100 | 100 |  | 90 |  | 90 | 100 | 100 | 100 | 100 | 100 | 90 | 
CC#Cc1cc(Br)c(C2=C(O)C3(CCC(COC)C3)NC2=O)c(OCC)c1 (stereo not shown) [Example I-69] | 100 | 90 | 100 |  |  |  | 100 |  | 90 | 100 | 90 | 100 | 100 | 100 | 100 |  | 100 | 80
C=CCOCC1CCC2(C1)NC(=O)C(c1c(C)cc(C#CC)cc1Br)=C2O (stereo not shown) [Example I-70] | 100 | 100 | 90 | 80 |  | 100 | 100 |  | 90 | 90 | 100 | 100 | 100 | 100 | 100 |  | 80 | 
CC#Cc1cc(Br)c(C2=C(OC(=O)C(C)C)C3(CCC(COC)C3)NC2=O)c(OC)c1 (stereo not shown) [Example P-04] | 100 | 100 | 100 | 90 |  | 100 |  | 80 | 100 | 100 | 100 | 100 | 100 | 100 | 100 | 80 |  | 90
CC#Cc1cc(Br)c(C2=C(OC(=O)C(C)C)C3(CCC(COCC)C3)NC2=O)c(OC)c1 (stereo not shown) [Example P-23] | 100 | 100 | 90 |  |  | 100 | 100 | 80 | 100 | 100 | 100 | 100 | 100 | 100 | 100 | 90 |  | 90
CC#Cc1cc(C)c(C2=C(OC(=O)OCC)C3(CCC(COCC)C3)NC2=O)c(F)c1 (stereo not shown) [Example P-53] | 100 | 80 | 100 | 90 | 90 |  | 100 | 80 | 100 | 100 | 90 | 100 | 100 | 100 | 100 |  |  | 
CC#Cc1cc(F)c(C2=C(OC(=O)OCC)C3(CCC(COCC)C3)NC2=O)c(OC)c1 (stereo not shown) [Example P-61] | 100 |  | 100 |  | 80 | 100 | 100 | 80 | 100 | 90 | 90 | 100 | 100 | 100 | 100 |  |  | 90
CC#Cc1cc(C)c(C2=C(OC(=O)OCC)C3(CCC(COCCOC)C3)NC2=O)c(Cl)c1 (stereo not shown) [Example P-76] | 100 | 100 | 100 |  | 90 | 100 | 100 |  | 90 | 100 | 100 | 100 | 100 | 100 | 100 | 100 | 100 | 100
CC#Cc1cc(Br)c(C2=C(OC(=O)OCC)C3(CCC(COCC)C3)NC2=O)c(OCC)c1 (stereo not shown) [Example P-89] | 100 | 80 | 90 |  |  | 100 | 100 |  | 90 | 100 | 100 | 100 | 100 | 100 | 100 |  | 100 | 
